Source: patent US10988433B2, “Cyclohexyl GPR40 agonists for the treatment of type II diabetes” (Janssen Pharmaceutica NV, priority 2016, dated 2021)

Tests used:
human GPR40 = target: T1, human GPR40 (Homo sapiens, UniProt O14842); test: GPR40 calcium flux assay, HEK293 cells stably expressing human GPR40; type: cell-based; conditions: transfected HEK293 cells stably expressing human GPR40, Fluo 8 dye, read-out: hGPR40 Ca2+ Assay EC50
T1 construct: expressed in transfected cells
Protocol: (§1) Compounds were tested in a calcium flux assay using transfected HEK293 cells stably expressing either human GPR40 or rat GPR40. Human GPR40 expressing cells were cultured in DMEM-High Glucose media supplemented with 10% fetal bovine serum, 1×L-Glutamine, 1×Penicillin/Streptomycin and 500 μg/mL G418. Rat GPR40 expressing cells were cultured in DMEM-High Glucose media supplemented with 10% fetal bovine serum and 1 μg/mL puromycin. Cells were plated into poly-D-lysine coated 384-well plates and cultured overnight in a 37° C. humidified tissue culture incubator under 5% CO2/[…] atmosphere. On the day of the experiment, the culture media was replaced with assay buffer (HBSS, 20 mM HEPES, 0.1% BSA) and the cells incubated at 37° C. for 1 h. Calcium-sensitive fluorescent dye (Fluo 8 No-Wash Calcium Dye, ABD Bioquest) was then added and the cells incubated for another 30 min at 37° C. followed by 15 min at room temperature while protected from the light. The cell plate and a plate of diluted compounds of Formula (I) were loaded into a fluorescent plate reader that added compounds onto the cells while measuring the fluorescence intensity of each well. The plate reader recorded fluorescence intensity at 1 second intervals for 8 min and provided the data for analysis in an Excel format. EC50 values were calculated using Prism (GraphPad) software.

rat GPR40 = target: T2, rat GPR40 (Rattus norvegicus, UniProt Q8K3T4); test: GPR40 calcium flux assay, HEK293 cells stably expressing rat GPR40; type: cell-based; conditions: transfected HEK293 cells stably expressing rat GPR40, Fluo 8 dye, read-out: rGPR40 Ca2+ Assay EC50
T2 construct: expressed in transfected cells
T2 sequence (Q8K3T4 whole entry): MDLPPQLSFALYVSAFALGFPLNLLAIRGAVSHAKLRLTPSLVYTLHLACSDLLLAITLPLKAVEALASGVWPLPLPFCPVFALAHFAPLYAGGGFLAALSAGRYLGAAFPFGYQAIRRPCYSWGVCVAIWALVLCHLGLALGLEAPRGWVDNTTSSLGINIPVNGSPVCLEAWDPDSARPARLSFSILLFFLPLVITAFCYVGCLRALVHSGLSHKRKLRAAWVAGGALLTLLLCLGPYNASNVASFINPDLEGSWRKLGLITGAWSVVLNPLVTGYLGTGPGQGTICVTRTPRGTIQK
Protocol: as §1

T1 sequence (O14842 whole entry): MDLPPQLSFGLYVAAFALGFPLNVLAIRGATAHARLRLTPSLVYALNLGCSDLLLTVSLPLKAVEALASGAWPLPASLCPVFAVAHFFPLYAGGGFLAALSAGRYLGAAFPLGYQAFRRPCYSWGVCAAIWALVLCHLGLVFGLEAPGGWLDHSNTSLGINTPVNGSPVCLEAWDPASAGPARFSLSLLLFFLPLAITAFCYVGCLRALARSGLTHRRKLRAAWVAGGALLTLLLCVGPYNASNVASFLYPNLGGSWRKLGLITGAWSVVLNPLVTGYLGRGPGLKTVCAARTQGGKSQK

| EC50 (human GPR40) [nM] | EC50 (rat GPR40) [nM] | Structure (SMILES) |
| --- | --- | --- |
| 212 | 676 | CCOc1cc([C@H]2CC[C@@H](COc3cc([C@@H](CC(=O)O)C4CC4)ccn3)CC2)c(F)cn1 [Cpd 48, (S)-3-cyclopropyl-3-(2-(((1s,4R)-4-(2-ethoxy-5-fluoropyridin-4-yl)cyclohexyl)methoxy)pyridin-4-yl)propanoic acid] |
| 5800 | > 10000 | COc1cncc(C2CCC(COc3cc([C@@H](CC(=O)O)C4CC4)ccn3)CC2)n1 (stereo partly drawn) [Cpd 46, (S)-3-Cyclopropyl-3-(2-((4-(6-methoxypyrazin-2-yl)cyclohexyl)methoxy)pyridin-4-yl)propanoic acid] |
| 14.1 | 16.2 | C[C@](F)(C(=O)O)[C@H](c1cccc(OC[C@H]2CC[C@H](c3cc(OC(F)(F)F)ccc3F)CC2)c1)C1CC1 [Cpd 74, (2R,3S)-3-Cyclopropyl-2-fluoro-3-(3-(((1r,4S)-4-(2-fluoro-5-(trifluoromethoxy)phenyl)cyclohexyl)methoxy)phenyl)-2-methylpropanoic acid] |
| 2.6 | 6.1 | COc1ccc(F)c([C@H]2CC[C@H](/C=C/c3cccc([C@@H](CC(=O)O)C4CC4)c3)CC2)c1 [Cpd 28, (S)-3-cyclopropyl-3-(3-((E)-2-((1r,4S)-4-(2-fluoro-5-methoxyphenyl)cyclohexyl)vinyl)phenyl)propanoic acid] |
| 1.72 | 10.4 | COc1ccc(F)c([C@H]2CC[C@H](CNc3cccc([C@H](C4CC4)C(C)(F)C(=O)O)c3)CC2)c1 (stereo partly drawn) [Cpd 77, (3S)-3-Cyclopropyl-2-fluoro-3-(3-((((1r,4S)-4-(2-fluoro-5-methoxyphenyl)cyclohexyl)methyl)amino)phenyl)-2-methylpropanoic acid] |
| 0.25 | 0.56 | COc1cc([C@H]2CC[C@H](COc3cccc([C@H](C4CC4)[C@@](C)(F)C(=O)O)c3)CC2)c(F)cn1 [Cpd 62] |
| 3.7 | 17.3 | COc1cc(C2CCC(COc3cccc([C@@H](CC(=O)O)C4CC4)c3)C(C)C2)c(F)cn1 (stereo partly drawn) [Cpd 33, (3S)-3-Cyclopropyl-3-(3-((4-(5-fluoro-2-methoxypyridin-4-yl)-2-methylcyclohexyl)methoxy)phenyl)propanoic acid] |
| 0.22 | 0.46 | COc1ccc(F)c([C@H]2CC[C@H](CCc3cccc([C@H](C4CC4)C(C)(F)C(=O)O)c3)CC2)c1 (stereo partly drawn) [Cpd 73, (3S)-3-Cyclopropyl-2-fluoro-3-(3-(2-((1r,4R)-4-(2-fluoro-5-methoxyphenyl)cyclohexyl)ethyl)phenyl)-2-methylpropanoic acid] |
| 2.2 | 5.5 | COc1ccc(F)c(C2CCC(OCc3cccc([C@H](C4CC4)C(C)(F)C(=O)O)c3)CC2)c1 (stereo partly drawn) [Cpd 78, (3S)-3-Cyclopropyl-2-fluoro-3-(3-(((4-(2-fluoro-5-methoxyphenyl)cyclohexyl)oxy)methyl)phenyl)-2-methylpropanoic acid] |
| 281 | 464 | COc1cc([C@H]2CC[C@H](COc3cc([C@@H](Cc4nnn[nH]4)C4CC4)ccn3)CC2)c(F)cn1 [Cpd 43, 4-((1S,4r)-4-(((4-((S)-1-Cyclopropyl-2-(1H-tetrazol-5-yl)ethyl)pyridin-2-yl)oxy)methyl)cyclohexyl)-5-fluoro-2-methoxypyridine] |
| 9.9 | 40.7 | COc1ccc(F)c([C@]2(F)CC[C@@H](COc3cccc([C@@H](CC(=O)O)C4CC4)c3)CC2)c1 [Cpd 20, (S)-3-Cyclopropyl-3-(3-(((1s,4R)-4-fluoro-4-(2-fluoro-5-methoxyphenyl)cyclohexyl)methoxy)phenyl)propanoic acid] |
| 0.3 | 0.23 | COc1ccc(F)c([C@H]2CC[C@H](COc3cccc([C@H](C4CC4)C(C)(F)C(=O)O)c3)CC2)c1 (stereo partly drawn) [Cpd 58, (3S)-3-Cyclopropyl-2-fluoro-3-(3-(((1r,4S)-4-(2-fluoro-5-methoxyphenyl)cyclohexyl)methoxy)phenyl)-2-methylpropanoic acid] |
| 32.7 | 143 | COc1ccc(F)c([C@H]2CC[C@H](COc3cccc(C(CC(=O)O)C4CC4)n3)CC2)c1 (mixture of isomers) [Cpd 13, 3-Cyclopropyl-3-(6-(((1r,4r)-4-(2-fluoro-5-methoxyphenyl)cyclohexyl)methoxy)pyridin-2-yl)propanoic acid] |
| 13 | 28 | COc1ccc(F)c([C@H]2CC[C@H](COc3cc([C@H](C4CC4)C(C)(F)C(=O)O)ccn3)CC2)c1 (stereo partly drawn) [Cpd 79, (3S)-3-Cyclopropyl-2-fluoro-3-(2-(((1r,4S)-4-(2-fluoro-5-methoxyphenyl)cyclohexyl)methoxy)pyridin-4-yl)-2-methylpropanoic acid] |
| 258 | 855 | COc1cc([C@]2(OC)CC[C@H](COc3cc([C@@H](CC(=O)O)C4CC4)ccn3)CC2)c(F)cn1 [Cpd 45, (S)-3-Cyclopropyl-3-(2-(((1r,4S)-4-(5-fluoro-2-methoxypyridin-4-yl)-4-methoxycyclohexyl)methoxy)pyridin-4-yl)propanoic acid] |
| 24.8 | 160 | COc1ccc(F)c([C@]2(O)CC[C@@H](COc3cccc([C@@H](CC(=O)O)C4CC4)c3)CC2)c1 [Cpd 3, (S)-3-Cyclopropyl-3-(3-(((1s,4R)-4-(2-fluoro-5-methoxyphenyl)-4-hydroxycyclohexyl)methoxy)phenyl)propanoic acid] |
| 59 | 256 | COc1cc([C@H]2CC[C@@H](COc3ccnc(C(CC(=O)O)C4CC4)c3)CC2)c(F)cn1 (stereo partly drawn) [Cpd 32, 3-Cyclopropyl-3-(4-(((1s,4s)-4-(5-fluoro-2-methoxypyridin-4-yl)cyclohexyl)methoxy)pyridine-2-yl)propanoic acid] |
| 0.18 | 0.71 | COc1ccc(F)c(C2=CCC(COc3cccc([C@H](C4CC4)[C@@](C)(F)C(=O)O)c3)CC2)c1 (stereo partly drawn) [Cpd 76, (2R,3S)-3-Cyclopropyl-2-fluoro-3-(3-((2′-fluoro-5′-methoxy-2,3,4,5-tetrahydro-[1,1′-biphenyl]-4-yl)methoxy)phenyl)-2-methylpropanoic acid] |
| 1.9 | 2.36 | COc1ccc(C(=O)Nc2ccccn2)c(C2CCC(COc3cccc([C@H](C4CC4)C(C)(F)C(=O)O)c3)CC2)c1 (stereo partly drawn) [Cpd 71, (3S)-3-Cyclopropyl-2-fluoro-3-(3-((4-(5-methoxy-2-(pyridin-2-ylcarbamoyl)phenyl)cyclohexyl)methoxy)phenyl)-2-methylpropanoic acid] |
| 133 | 346 | COc1ccc(F)c(C2CCC(COc3cccc(C(CC(=O)O)C4CC4)c3)CC2)c1 (stereo not drawn) [Cpd 55, 3-Cyclopropyl-3-(3-(((1 s,4 s)-4-(2-fluoro-5-methoxyphenyl)cyclohexyl)methoxy)phenyl)propanoic acid] |
| 1840 | 5320 | COc1ccc(F)c([C@H]2CC[C@@H](COc3ccnc(C(CC(=O)O)C4CC4)c3)CC2)c1 (stereo partly drawn) [Cpd 35, 3-Cyclopropyl-3-(4-(((1s,4s)-4-(2-fluoro-5-methoxyphenyl)cyclohexyl)methoxy)pyridin-2-yl)propanoic acid] |
| 1.2 | 1.5 | COc1cc(C2CCC(COc3cccc([C@H](C4CC4)C(C)(F)C(=O)O)c3)CC2)ccn1 (mixture of isomers) [Cpd 69, (3S)-3-Cyclopropyl-2-fluoro-3-(3-((4-(2-methoxypyridin-4-yl)cyclohexyl)methoxy)phenyl)-2-methylpropanoic acid] |
| 34.7 | 79.8 | COc1cc([C@H]2CC[C@@H](COc3cc(C(CC(=O)O)C4CC4)ccn3)CC2)c(F)cn1 (stereo partly drawn) [Cpd 7, 3-Cyclopropyl-3-(2-(((1s,4s)-4-(5-fluoro-2-methoxypyridin-4-yl)cyclohexyl)methoxy)pyridin-4-yl)propanoic acid] |
| 22 | 21 | COc1ccc(F)c([C@H]2CC[C@H](CNc3cccc([C@@H](CC(=O)O)C4CC4)c3)CC2)c1 [Cpd 40, (S)-3-Cyclopropyl-3-(3-((((1r,4 S)-4-(2-fluoro-5-methoxyphenyl)cyclohexyl)methyl)amino)phenyl)propanoic acid] |
| 79 | 220 | COc1cc([C@H]2CC[C@H](COc3cc([C@H](C4CC4)C(C)(F)C(=O)O)ccn3)CC2)c(F)cn1 (stereo partly drawn) [Cpd 80, (3S)-3-Cyclopropyl-2-fluoro-3-(2-(((1r,4S)-4-(5-fluoro-2-methoxypyridin-4-yl)cyclohexyl)methoxy)pyridin-4-yl)-2-methylpropanoic acid] |
| 3100 | 401 | CC#CC(CC(=O)O)c1cccc(OC[C@H]2CC[C@@H](c3cc(OC)ccc3F)CC2)c1 (stereo partly drawn) [Cpd 42, 3-(3-(((1 s,4s)-4-(2-Fluoro-5-methoxyphenyl)cyclohexyl)methoxy)phenyl)hex-4-ynoic acid] |

| Structure (SMILES) | EC50 (human GPR40) [nM] | EC50 (rat GPR40) [nM] |
| --- | --- | --- |
| COc1ccc(F)c([C@H]2CC[C@@H](COc3cccc([C@H](C4CC4)[C@H](C)C(=O)O)c3)CC2)c1 [Cpd 53, (2S,3R)-3-cyclopropyl-3-(3-(((1s,4S)-4-(2-fluoro-5-methoxyphenyl)cyclohexyl)methoxy)phenyl)-2-methylpropanoic acid] | 2 | 7.7 |
